In patent US20040023893A1, “Novel coumarin derivatives and the salts thereof, a process for the preparation thereof and their use in the pharmaceutical field” (priority 2000, published 2004):
Where two headings read alike, the source gives them in different places.

Key:
[1] = system: carrageenin-induced oedema in rat paw; assay: Carrageenin-induced oedema in rat paw; type: in vivo; conditions: 2 mg/Kg i.v. 5 minutes before 1.5 mg carrageenin intraplantar, paws weighed 3 hours later, saline controls = 100%
Protocol: Test 3—Reduction in Inflammation in Carrageenin-Induced Oedema in Rat Paw
A model of acute inflammation induced by intraplantar injection of 1.5 mg of carrageenin in rat paw was used. Administration of the compounds (2 mg/Kg) was by the intravenous route 5 minutes before oedema was induced: 3 hours later the animals were sacrificed and their paws were weighed as an indication of inflammation. The control animals received saline instead of the test compounds. The weight of the paws of the control animals was taken to correspond to 100% on the inflammation index.

[2] = system: Salmonella typhimurium (TA 98 and TA 100) and Escherichia coli (WP2 pKM101 and WP2 uvrA pKM1091); assay: Mutagenesis (Mini-Ames test); type: cell-based; conditions: with and without microsomal liver enzyme preparation
Protocol: Test 8—Mutagenesis (Mini-Ames Test)
The Mini-Ames test is a version of the traditional Ames test which involves the incubation of bacterial cells on 35-mm dishes instead of 100-mm dishes, and it requires a smaller quantity of product while maintaining the reliability of the result.
The test is conducted on two strains of Salmonella typhimurium requiring histidine (TA 98 and TA 100) and two strains of Escherichia coli requiring tryptophan (WP2 pKM101 and WP2 uvrA pKM1091).
The bacterial cells were exposed to different concentrations of the test compounds in the presence and absence of a microsomal liver enzyme preparation, to reveal any possible metabolite activity.
Mutagenic activity was determined as the ability of the test compound to induce a significant increase in the number of mutant clones compared to those developed spontaneously in the cultures with the control vehicle.

[3] = system: TNF release, human blood; assay: Inhibition of TNF release after stimulation with LPS in vitro, whole blood (L929 mortality readout); type: cell-based; conditions: heparinised whole blood stimulated with LPS; concentration (± standard error) inhibiting L929 fibroblast mortality by 50%; read-out: Human blood CI50
Protocol: (§1) Test 1—Inhibition of TNF Release After Stimulation with LPS in vitro
(§2) The test compound was added to the culture medium in a murine macrophage line (J774) or to whole blood anti-coagulated with heparin. The cells were then stimulated with bacterial lipopolysacccharide. After incubation at 37° C. for a suitable length of time, the supernatant was removed from the culture and incubated with a line of murine fibroblasts (L929), sensitive to TNF. The quantity of TNF released after stimulation with LPS is measured by comparing mortality of the L929 cells with that of the controls. Table 1 reports for the single compounds the concentration (±standard error) able to inhibit fibroblast mortality (L929) by 50%.

[4] = system: Male CD-1 mice; assay: Toxicity after a single intravenous administration; type: in vivo
Text: (§3) Test 7—Toxicity After a Single Intravenous Administration
(§4) Male CD-1 mice were used to assess the maximum non-lethal does (MNLD—the highest does at which no cases of mortality are observed) and the maximum tolerated does (MTD—does at which no evident or marked signs of tocicity or altered behaviour are observed).

[5] = system: platelet aggregation, human whole blood; assay: Inhibition of collagen-induced platelet aggregation in human whole blood; type: cell-based; conditions: collagen 1 μg/ml, 1 minute preincubation, count 5 minutes after collagen, vs saline, read-out: CI50 (platelet aggregation)
Protocol: Test 6—Inhibition of Collagen-Induced Platelet Aggregation in Human Whole Blood
The aggregation event was analysed by counting the single non-aggregated platelets with a cell counter 5 minutes after adding collagen (1 μg/ml). In these working conditions, collagen induces platelet aggregation of over 80%. The test compounds or saline as control were preincubated for 1 minute before the collagen was added.
Table 6 reports the concentrations that inhibit platelet aggregation by 50% compared to saline.

[6] = system: IL-1β; assay: Inhibition of the release of IL-1β following stimulation with LPS in vivo; conditions: rat, blood 120 minutes after LPS, ELISA, vs saline controls
Protocol: (§5) Test 2—Inhibition of the Release of TNF and IL-β Following Stimulation with LPS in vivo
(§6) Conscious rats were injected with a dose of LPS, which is able to stimulate the release of TNF and IL-1β, having first received an intravenous administration (15 minutes beforehand) of the test compound at a dose of 0.5 mg/Kg or 2 mg/Kg. Blood levels of TNF and IL-1β were measured by the ELISA method on blood samples taken 75 minutes and 120 minutes after LPS respectively.
(§7) Table 2 below reports the percent of inhibition of each product compared to that of the controls treated with saline.

[7] = system: superoxide anions, human whole blood; assay: Inhibition of superoxide anion formation induced by f-MLP in human whole blood; type: cell-based; conditions: 20 minutes preincubation at 37° C., f-MLP with cytochalasin B, read-out: CI50 (superoxide anion formation, Cytochrome C)
Protocol: Test 5—Inhibition of the Formation of Superoxide anions Induced by f-MLP in Human Whole Blood
Samples of whole blood diluted with PBS Cytochrome C were incubated for 20 minutes at 37° C. with the test compounds or saline before adding the chermotactic agent f-MLP (0.1 μm/l) in the presence of cytochalasin B. After 20 minutes of activation with this agent, the samples were centrifuged and readings were taken of the supernatants with a spectrophotometer to assess the reduction in Cytochrome C. Table 5 reports the concentrations that are effective in inhibiting the loss of Cytochrome C by 50%.

[8] = system: TNF release, murine macrophage line (J774); assay: Inhibition of TNF release after stimulation with LPS in vitro, J774 macrophages (L929 mortality readout); type: cell-based; conditions: J774 macrophages stimulated with LPS, concentration (± standard error) inhibiting L929 fibroblast mortality by 50%, read-out: J774 CI50
Protocol: as §1, §2

[9] = system: TNF; assay: Inhibition of the release of TNF following stimulation with LPS in vivo; conditions: rat, blood 75 minutes after LPS, ELISA, vs saline controls
Protocol: as §5, §6, §7

[10] = system: nitrite-nitrate release; assay: Inhibition of the release of nitrite-nitrate in rat plasma after LPS; type: in vivo; conditions: 25 mg/Kg o.s. 30 minutes before and 3 hours after LPS 0.1 mg/Kg i.v., blood 8 hours after LPS, Griess reagent, saline controls = 100%
Protocol: Test 4—Inhibition of the Release of Nitrite-Nitrate in Rat Plasma
The release of nitrite-nitrite was measured with Griess reagent in blood samples taken 8 hours after the administration of LPS (0.1 mg/Kg) i.v.
The animals were treated with the compounds by o.s. (25 mg/Kg) 30 minutes before and 3 hours after LPS. The control animals received saline instead of the test compounds. The values for the release of nitrite-nitrate were made to correspond to 100%.

[11] = Toxicity after a single intravenous administration; type: in vivo; conditions: mouse, in vivo, male CD-1 mice, read-out: DMT (maximum tolerated dose, MTD)
Text: as §3, §4

[12] = dose of 0.5 mg/Kg i.v. 15 minutes before LPS
[13] = dose of 2 mg/Kg i.v. 15 minutes before LPS
[14] = iv, dose of 0.5 mg/Kg i.v. 15 minutes before LPS
[15] = iv, dose of 2 mg/Kg i.v. 15 minutes before LPS

SMILES	/o vs controls (paw weight, inflammation index) [1]	Mutagenic activity (Mini-Ames test) [2]	IC50 [3] [µM]	DMNL (maximum non-lethal dose, MNLD) [4]	DMT (maximum tolerated dose, MTD) [4] [mg/kg]	IC50 [5] [µM]	% of inhibition of IL-1β [6, 12] [%]	% of inhibition of IL-1β [6, 13] [%]	IC50 [7] [µM]	IC50 [8] [µM]	% of inhibition of TNF [9, 12] [%]	% of inhibition of TNF [9, 13] [%]	% vs controls (release of nitrite-nitrate) [10] [%]	MTD [11] [mg/kg]	IC50 ([5]; Platelet) [µM]	inhibition at 0.5 mg/kg [6, 14] [%]	inhibition at 2 mg/kg [6, 15] [%]	IC50 ([8]; Mus musculus) [µM]	inhibition at 0.5 mg/kg [9, 14] [%]	inhibition at 2 mg/kg [9, 15] [%]
CCN(CC)CCc1c(C)c2ccc(OCC(=O)NC3CCCCC3)c(Cl)c2oc1=O.Cl.Cl [Compound 201330]	77 /o	None of the tested compounds (203152, 201273, 201326 and 201330) proved to be mutagenic	12.6 ± 3.5	50 mg(Kg	25	93	33	57	36	12 ± 3.9	75	62								
C=CCc1cc2c(C)c(CN3CCOCC3)c(=O)oc2c(CC=C)c1OCCCOc1c(CC=C)cc2c(C)c(CN3CCOCC3)c(=O)oc2c1CC=C.Cl.Cl [Compound 203152]	90 /o	None of the tested compounds (203152, 201273, 201326 and 201330) proved to be mutagenic	> 80	200 mg(Kg	50	> 100	64	60	> 100	13.3 ± 9	72	73	108							
C[C@H]1C[C@H]2[C@@H]3CCC4=CC(=O)C=C[C@]4(C)[C@@]3(F)[C@@H](O)C[C@]2(C)[C@@]1(O)C(=O)CO [Betamethasone, reference compound]													20							
C[C@H]1C[C@@H]2[C@H]([C@@H](O)C[C@@]3(C)[C@H]2CC[C@]3(O)C(=O)CO)[C@@]2(C)C=CC(=O)C=C12 [Methylprednisolone, reference compound]	56 /o																			
CCCCC(O)COc1ccc2c(C)c(CCN(CC)CC)c(=O)oc2c1.Cl (centres unmarked) [Compound 201273]	67 /o	None of the tested compounds (203152, 201273, 201326 and 201330) proved to be mutagenic	40.4 ± 13.5	100 mg(Kg	25	> 100	67	39	> 100	27.5 ± 5.3	72	84	76							
COc1ccc2c(c1)c(CC(=O)O)c(C)n2C(=O)c1ccc(Cl)cc1 [Indomethacin, reference compound]	57 /o																			
CCCCC(O)COc1ccc2c(C)c(CCN(CC)CC)c(=O)oc2c1Cl.Cl (centres unmarked) [Compound 201326]	58 /o	None of the tested compounds (203152, 201273, 201326 and 201330) proved to be mutagenic	23 ± 2	50 mg(Kg	6.25	78	40	62	> 100	10.5 ± 3	85	77	62							
CCOC(=O)[C@@H](N)CSCC(O)COc1ccc2c(C)c(CCN(CC)CC)c(=O)oc2c1.Cl.Cl (some centres unmarked) [Compound 201261]	86 /o		9	200 mg(Kg	50	> 100				25.4			98							
CCCCC[C@H](O)/C=C/[C@@H]1[C@H]2C/C(=C/CCCC(=O)O)O[C@H]2C[C@H]1O [PG12, reference compound]						0.05														
CCOC(=O)COc1ccc2c(C)c(CCN(CC)CC)c(=O)oc2c1Cl [Compound 201006, Cloricromene, reference compound]	79 /o		78.6 ± 10	12.5 mg(Kg					52				99	6.25	35	45	28	57.9 ± 20	9	30
